Experimental data from US20070167377A1, “Inhibitors of glycinamide ribonucleotide transformylase” (priority 2002, published 2007).
Entries after “also recorded” stand apart in the source; their conditions may differ. Like-named read-outs stand apart in the source and are kept apart here.

Tests used:
[1] = molecular target: T1, E. coli GAR Tfase (Escherichia coli, UniProt P08179); test: E. coli GAR Tfase inhibition; format: biochemical; details: for fold less potent than the corresponding monoglutamate: α-pentaglutamate vs monoglutamate (25 vs 3, 26 vs 15)
Experimental: (§1) GAR and AICAR Tfase inhibition studies were conducted as previously detailed^28 with the exception that the AICAR Tfase inhibition was conducted in the absence of 5 mM β-mercaptoethanol and screened with 10 nM enzyme, […] inhibitor and […] of cofactor. The DHFR inhibition study was conducted as previously detailed with 10 nM enzyme, […] H2F, […] NADPH and […] inhibitor.
The Ki values for the folate analogues were measured as previously described (Boger, D. L., et al., Bioorg. Med. Chem. 1997, 5, 1817-1830). Briefly, each compound was dissolved in dimethyl sulfoxide (DMSO) and then diluted in assay buffer. […] Thus, all assays were conducted by mixing 10 μM 10-formyl-5,8-dideazafolate (fDDF), 20 μM inhibitor in total volume of 1 mL buffer (0.1 M HEPES, pH 7.5) at 26° C., and the reaction initiated by the addition of 76 nM E. coli or human GAR Tfase. The assay monitors the deformylation of fDDF (Δε=18.9 mM^−1 cm^−1 at 295 nm) resulting from the transfer of the formyl group to β-GAR.

[2] = molecular target: T2, recombinant human GAR Tfase (rhGAR Tfase) (Homo sapiens, UniProt P22102); test: Recombinant human GAR Tfase inhibition; format: biochemical; details: for potency increase of γ-pentaglutamate over monoglutamate: 21 vs 3, 22 vs 15
T2 construct: includes residues 808-1010 from the human trifunctional enzyme (purD-purM-purN); hexa-histidine (C); made in house; host or cells: E. coli BL21 (DE3) Gold, pet22b vector
T2 sequence (P22102 808-1010): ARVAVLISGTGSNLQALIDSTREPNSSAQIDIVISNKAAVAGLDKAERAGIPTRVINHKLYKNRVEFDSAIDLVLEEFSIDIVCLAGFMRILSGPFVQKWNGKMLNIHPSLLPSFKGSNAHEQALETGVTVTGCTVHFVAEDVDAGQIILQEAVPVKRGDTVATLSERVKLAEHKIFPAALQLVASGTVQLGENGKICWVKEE
Experimental: The gene was subcloned into the pet22b vector using the Ndel/Xhol cloning site with ahexa-histidine tag at the C-terminus. The plasmid was transformed into the E. coli expression strain BL21 (DE3) Gold. […] The purified protein was used in the inhibition assays, cytotoxic assays and crystallization experiments.
Briefly, each compound was dissolved in dimethyl sulfoxide (DMSO) and then diluted in assay buffer.

[3] = system: CCRF-CEM cell line; test: CCRF-CEM cytotoxic assay; format: cell-based, human; details: for IC50: Homo sapiens
Experimental: (§2) The cytotoxic activity of the compounds was measured using CCRF-CEM human leukemia cells, as described previously (Boger, D. L., et al., Bioorg. Med. Chem. 1997, 5, 1847-1852). Two mutant cell lines, CCRF-CEM/MTX and CCRF-CEM/FPGS^− were used to determine the dependence on the reduced folate active transport system and folylpolyglutamate synthetase (FPGS), respectively (Jansen, G., et al., Cancer Res. 1989, 49, 2455-2459).

[4] = system: CCRF-CEM/MTX cell line; test: Cytotoxic assay, reduced folate carrier deficient mutant; format: cell-based, human; details: impaired reduced folate carrier; for IC50: Homo sapiens
Experimental: as §2

[5] = system: CCRF-CEM/FPGS^− cell line; test: Cytotoxic assay, FPGS deficient mutant; format: cell-based, human; details: lacks folylpolyglutamate synthase
Experimental: as §2

[6] = Chemical stability; format: physicochemical
[7] = molecular target: human AICAR Tfase (Homo sapiens, UniProt P31939); test: AICAR Tfase inhibition; format: biochemical; details: for fold enhanced binding affinity / more potent than the corresponding monoglutamate: 21 vs 3, 22 vs 15, 26 vs 15
Experimental: as §1

[8] = molecular target: T1, E. coli GAR Tfase; details: 10-formyl-TDAF, earlier studies; cited from earlier work
[9] = system: CCRF-CEM cell line; details: earlier studies; cited from earlier work
[10] = earlier studies; cited from earlier work
[11] = molecular target: DHFR (Escherichia coli, UniProt P0ABQ4); test: DHFR inhibition (101, 102); format: biochemical; details: DHFR
[12] = molecular target: thymidylate synthetase (TS) (Homo sapiens, UniProt P04818); test: Thymidylate synthetase inhibition; format: biochemical; details: TS
[13] = purines (hypoxanthine) absent in the media
[14] = media supplemented with a purine

For `Nc1nc(N)c(CCCC(C=O)c2ccc(C(=O)N[C@@H](CCC(=O)O)C(=O)O)cc2)c(=O)[nH]1` (some centres unmarked) [Compound 3], the Ki ([1]; E. coli GAR Tfase) was 6 µM, the Ki [2] was 0.014 µM and the IC50 [3, 13] was 0.06 µM. The “cytotoxic activity (in words)” value [3, 14] was “no activity”, the IC50 [4] was greater than 100 µM and the “cytotoxic activity (in words)” value [4] was “lack of cytotoxic activity; also recorded: lost activity”. The “cytotoxic activity (in words)” value [5] was “inactivity; also recorded: lost cytotoxic activity” and the “chemical stability (in words)” value [6] was “chemical instability; also recorded: facile oxidative decarbonylation”.
For `CN(C)N=CC(CCCc1c(N)nc(N)[nH]c1=O)c1ccc(C(=O)N[C@@H](CCC(=O)N[C@@H](CCC(=O)N[C@@H](CCC(=O)N[C@@H](CCC(=O)N[C@@H](CCC(=O)O)C(=O)O)C(=O)O)C(=O)O)C(=O)O)C(=O)O)cc1` (stereo partly drawn) [Compound 22, N{4-[5-(2,4-Diamino-6(1H)-pyrimidinon-5-yl)-1-(dimethylhydrazono)pent-2-yl]benzoyl}-L-γ-glutamyl-L-γ-glutamyl-L-γ-glutamyl-L-γ-glutamyl-L-γ-glutamic Acid], the “inhibition of / binding affinity for E. coli GAR Tfase (in words)” value (shortened to “inhibition of / binding affinity”) [1] was “only marginal enhanced binding affinity”, the “potency increase of γ-pentaglutamate over monoglutamate” value [2] was 5 fold and the “fold enhanced binding affinity / more potent than the corresponding monoglutamate” value [7] was 140 fold. For the same compound, the “cytotoxic activity (in words)” value [3] was “little or no cytotoxic activity”.
With `Nc1nc(N)c(CCCC(C(=O)C(F)(F)F)c2ccc(C(=O)O)cc2)c(=O)[nH]1` (centres unmarked) [Compound 111, 4-[4-(2,4-diamino-6-oxo-1,6-dihydropyrimidin-5-yl)-1-(2,2,2-trifluoro-acetyl)butyl]benzoic acid] the “inhibition of GAR Tfase (in words)” value [2] was “lack of inhibition”.
In the case of `CN(C)N=CC(CCCc1c(N)nc(N)[nH]c1=O)c1ccc(C(=O)N[C@@H](CCC(=O)O)C(=O)O)cc1` (stereo partly drawn) [Compound 15, N{4-[5-(2,4-Diamino-6(1H)-pyrimidinon-5-yl)-1-(dimethylhydrazono)pent-2-yl]benzoyl}-L-glutamic Acid], the Ki ([2]; rhGAR Tfase, read-out: Ki) is reported as 0.17 µM, the “fold less effective than 3” value ([7]; 15 vs 3) is reported as 30 fold and the IC50 [4] is reported as greater than 100 µM. The “cytotoxic activity (in words)” value [4] was “lack of cytotoxic activity” and the “cytotoxic activity (in words)” value [5] was “inactivity; also recorded: lost cytotoxic activity”.
In the case of `Nc1nc(N)c(CCCC(=O)c2ccc(C(=O)N[C@@H](CCC(=O)O)C(=O)O)cc2)c(=O)[nH]1` [Compound 14, N-{4-[4-(2,4-Diamino-6(1H)-pyrimidinon-5-yl)-1-oxo-but-1-yl]benzoyl}-L-glutamic Acid], the “inhibition of / binding affinity” value [1] is reported as “significantly less active”, the “inhibition of AICAR Tfase (in words)” value [7] is reported as “inactive” and the IC50 ([3]; purines absent in the media) is reported as less than 0.2 µM. For the same compound, the IC50 [4] was greater than 100 µM, the “cytotoxic activity (in words)” value [4] was “lack of cytotoxic activity” and the “cytotoxic activity (in words)” value [5] was “inactivity”.
In the case of `Nc1nc2ccc(CC(C=O)c3ccc(C(=O)N[C@@H](CCC(=O)O)C(=O)O)cc3)cc2c(=O)[nH]1` (some centres unmarked) [Compound 103, 10-formyl-5,8,10-trideazafolic acid], the Ki [8] is listed as 0.26 µM, the “cytotoxic activity (in words)” value [9] is listed as “failed to exhibit effective cytotoxic activity” and the “chemical stability (in words)” value [10] is listed as “poor stability; also recorded: facile oxidative decarbonylation”.
With `CN(C)N=CC(CCCc1c(N)nc(N)[nH]c1=O)c1ccc(C(=O)N[C@@H](CCC(=O)O)C(=O)N[C@@H](CCC(=O)O)C(=O)N[C@@H](CCC(=O)O)C(=O)N[C@@H](CCC(=O)O)C(=O)N[C@@H](CCC(=O)O)C(=O)O)cc1` (stereo partly drawn) [Compound 26, N{4-[5-(2,4-Diamino-6(1H)-pyrimidinon-5-yl)-1-(dimethylhydrazono)pent-2-yl]benzoyl}-L-α-glutamyl-L-α-glutamyl-L-α-glutamyl-L-α-glutamyl-L-α-glutamic Acid] the “orders of magnitude less potent than the corresponding γ-pentaglutamate 22” value ([1]; 26 vs 22) was 1-2 orders of magnitude, the “fold less potent than the corresponding monoglutamate” value [1] was 4 fold and the “fold enhanced binding affinity / more potent than the corresponding monoglutamate” value [7] was 4 fold. For the same compound, the “orders of magnitude less potent than the corresponding γ-pentaglutamate 22” value ([7]; 26 vs 22) was 1-2 orders of magnitude and the “cytotoxic activity (in words)” value [3] was “little or no cytotoxic activity”.
In the case of `Nc1nc(N)c(CCCC(C=O)c2ccc(C(=O)N[C@@H](CCC(=O)O)C(=O)N[C@@H](CCC(=O)O)C(=O)N[C@@H](CCC(=O)O)C(=O)N[C@@H](CCC(=O)O)C(=O)N[C@@H](CCC(=O)O)C(=O)O)cc2)c(=O)[nH]1` (stereo partly drawn) [Compound 25, N{4-[5-(2,4-Diamino-6(1H)-pyrimidinon-5-yl)-1-formyl-but-2-yl]benzoyl}-L-α-glutamyl-L-α-glutamyl-L-α-glutamyl-L-α-glutamyl-L-α-glutamic Acid], the “fold less potent than the corresponding monoglutamate” value [1] is reported as 3 fold, the “fold less potent than the aldehyde monoglutamate 3” value ([7]; 25 vs 3) is reported as 16 fold and the “cytotoxic activity (in words)” value [3] is reported as “little or no cytotoxic activity”.
`Nc1nc(N)c(CCCCc2ccc(C(=O)N[C@@H](CCC(=O)O)C(=O)O)cc2)c(=O)[nH]1` [DDACTHF, reference compound] gave an IC50 ([3]; purines absent in the media) of 2.7 µM.
With `Nc1nc(N)c(CCCC(CO)c2ccc(C(=O)N[C@@H](CCC(=O)O)C(=O)O)cc2)c(=O)[nH]1` (stereo partly drawn) [Compound 17, N-{4-[5-(2,4-Diamino-6(1H)-pyrimidinon-5-yl)-1-hydroxypent-2-yl]benzoyl}-L-glutamic Acid] the “inhibition of / binding affinity” value [1] was “significantly less active”, the “inhibition of AICAR Tfase (in words)” value [7] was “inactive” and the IC50 [4] was greater than 100 µM. For the same compound, the “cytotoxic activity (in words)” value [4] was “lack of cytotoxic activity” and the “cytotoxic activity (in words)” value [5] was “inactivity”.
For `Nc1nc(N)c(CCCC(C=O)c2ccc(C(=O)N[C@@H](CCC(=O)N[C@@H](CCC(=O)N[C@@H](CCC(=O)N[C@@H](CCC(=O)N[C@@H](CCC(=O)O)C(=O)O)C(=O)O)C(=O)O)C(=O)O)C(=O)O)cc2)c(=O)[nH]1` (stereo partly drawn) [Compound 21, N-{4-[5-(2,4-Diamino-6(1H)-pyrimidinon-5-yl)-1-formyl-but-2-yl]benzoyl}-L-γ-glutamyl-L-γ-glutamyl-L-γ-glutamyl-L-γ-glutamyl-L-γ-glutamic Acid], the “inhibition of / binding affinity” value [1] was “only marginal enhanced binding affinity”, the “potency increase of γ-pentaglutamate over monoglutamate” value [2] was “did not enhance” and the “fold enhanced binding affinity / more potent than the corresponding monoglutamate” value [7] was 4 fold. For the same compound, the “cytotoxic activity (in words)” value [3] was “little or no cytotoxic activity”.
With `Nc1nc(N)c(CCCC(c2ccc(C(=O)N[C@@H](CCC(=O)O)C(=O)O)cc2)C(O)C(F)(F)F)c(=O)[nH]1` (stereo partly drawn) [Compound 102, N-{4-[4-(2,4-Diamino-6-oxo-1,6-dihydropyrimidin-5-yl)-1-(2,2,2-trifluoro-1-hydroxy-ethyl)butyl]benzoyl}-L-glutamic acid] the “times less potent than 10-CF3CO-DDACTHF” value ([2]; comparator 101) was “ca. 50 times”, the Ki ([2]; rhGAR Tfase, read-out: Ki) was 0.9 µM and the “inhibition of AICAR Tfase (in words)” value [7] was “inactivity”. For the same compound, the Ki ([7]; AICAR Tfase) was greater than 100 µM, the Ki [11] was greater than 100 µM and the Ki [12] was greater than 100 µM. For the same compound, the IC50 ([3]; purines absent in the media) was 1.1 µM, the “cytotoxic activity (in words)” value [4] was “lost activity” and the “cytotoxic activity (in words)” value [5] was “lacked or lost activity”.
In the case of `Nc1nc2c(c(=O)[nH]1)C[C@@H](CCc1ccc(C(=O)N[C@@H](CCC(=O)O)C(=O)O)cc1)CN2` [Lometrexol, (6R)-5,10-dideazatetrahydrofolate, reference compound], the IC50 [3, 13] is reported as 0.23 µM, the IC50 ([3]; purines absent in the media) is reported as 0.15 µM and the “cytotoxic activity (in words)” value [3, 14] is reported as “no activity”. The “cytotoxic activity (in words)” value [4] was “lost activity” and the “cytotoxic activity (in words)” value [5] was “lacked or lost activity”.
